One series deals with T1, CYP1A2 (Homo sapiens, UniProt P05177).
T1 construct: Mixed human liver microsomes were purchased from BioreclamationIVT; tissue BioreclamationIVT; host or cells: mixed-donor pool of human liver microsomes (Lot ZZQ)
T1 sequence (P05177 1-516): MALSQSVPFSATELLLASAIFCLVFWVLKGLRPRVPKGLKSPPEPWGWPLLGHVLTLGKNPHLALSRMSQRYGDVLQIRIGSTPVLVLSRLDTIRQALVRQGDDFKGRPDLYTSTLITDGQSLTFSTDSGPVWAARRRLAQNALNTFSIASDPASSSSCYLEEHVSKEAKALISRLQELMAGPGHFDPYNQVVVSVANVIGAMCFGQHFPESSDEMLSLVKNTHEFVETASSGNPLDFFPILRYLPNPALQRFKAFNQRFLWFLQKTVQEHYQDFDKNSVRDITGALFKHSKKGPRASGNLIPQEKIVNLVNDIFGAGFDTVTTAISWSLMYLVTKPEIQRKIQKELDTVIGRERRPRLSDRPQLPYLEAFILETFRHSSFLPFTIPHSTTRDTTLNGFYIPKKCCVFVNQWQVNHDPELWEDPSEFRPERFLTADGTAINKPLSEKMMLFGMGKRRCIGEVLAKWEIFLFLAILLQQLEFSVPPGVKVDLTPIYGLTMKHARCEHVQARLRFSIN
As to the kind of experiment: CYP direct inhibition in human liver microsomes. Type of series: in vitro ADME. Particulars: probe phenacetin, mean of N = 2. (Liver microsomes are a subcellular fraction often used to study metabolism.)

The subject of another series is CYP2B6. As to the kind of experiment: in vitro. Particulars: human; for Mean Fold Induction: 48 h. As for the experimental part:
The sandwich medium was removed, and the hepatocytes were treated with incubation solutions containing salidroside (1, 5, 10, and 30 µM), vehicle (0.1% DMSO), or positive inducers in triplicate for 24 h after the cultures were established. The incubation solution was aspirated and replaced with incubation solution containing the same concentrations of salidroside, vehicle, or positive inducers for an additional 24 h. The total treatment period was 48 h. After the treatment period of 48 h, the incubation solution was aspirated. Hepatocytes were washed twice with pre-warmed HBSS containing 10 mM HEPES (HBSS I) and then the remaining solution was aspirated. Hepatocytes were washed once with pre-warmed HBSS I and incubated with 140 μL of RLT (lysis buffer from RNeasy 96 Kit) supplemented with 1% β-mercaptoethanol. Plates were then stored at −70 °C in a freezer until RNA analysis. Before RNA extraction, the frozen plate was thawed, and cell lysates were transferred to 96-well plates. RNA isolation was performed using a QIAcube RNA extraction system. Reverse transcription was performed to obtain cDNA. Quantification of the selective genes by real-time quantitative polymerase chain reaction (qPCR) was performed with TaqMan universal PCR Master Mix on the Bio-rad CFX384 TouchTM Real-Time PCR System. The relative change in the mRNA level of the selected target genes induced by each test compound was expressed in relation to the vehicle control sample, and fold changes in gene expression were determined by the ΔΔCt method.

The next series addresses CYP2D6 (Homo sapiens, UniProt P10635). The following applies: microsomes.
Details of series [1]: method as in PMID 29796228. Particulars: rat, cited from earlier work.
For the next series, the system named is CYP3A4/5. As to the kind of experiment: in vitro. Particulars: human, microsomes.
The next series is described as follows: in vitro. The following applies: Sprague-Dawley (SD), rat, plasma, pH 7.4.
The next series concerns the target T2, CYP2C8 (Homo sapiens, UniProt P10632).
T2 sequence (P10632 1-490): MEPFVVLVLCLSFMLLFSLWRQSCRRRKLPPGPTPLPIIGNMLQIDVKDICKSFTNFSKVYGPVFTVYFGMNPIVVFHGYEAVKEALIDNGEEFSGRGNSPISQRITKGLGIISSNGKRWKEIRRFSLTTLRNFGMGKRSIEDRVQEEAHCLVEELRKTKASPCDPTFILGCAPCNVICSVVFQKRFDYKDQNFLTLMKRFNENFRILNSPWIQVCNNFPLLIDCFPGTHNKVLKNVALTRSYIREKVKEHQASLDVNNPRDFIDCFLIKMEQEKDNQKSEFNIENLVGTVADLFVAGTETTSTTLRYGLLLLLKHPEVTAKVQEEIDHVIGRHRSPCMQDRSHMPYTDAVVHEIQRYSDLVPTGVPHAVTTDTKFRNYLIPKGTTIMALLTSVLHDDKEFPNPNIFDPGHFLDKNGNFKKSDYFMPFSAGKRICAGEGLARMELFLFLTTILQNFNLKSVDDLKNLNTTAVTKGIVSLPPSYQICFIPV
As to the kind of experiment: CYP direct inhibition in human liver microsomes.

Sequence of CYP2D6 (P10635 whole entry): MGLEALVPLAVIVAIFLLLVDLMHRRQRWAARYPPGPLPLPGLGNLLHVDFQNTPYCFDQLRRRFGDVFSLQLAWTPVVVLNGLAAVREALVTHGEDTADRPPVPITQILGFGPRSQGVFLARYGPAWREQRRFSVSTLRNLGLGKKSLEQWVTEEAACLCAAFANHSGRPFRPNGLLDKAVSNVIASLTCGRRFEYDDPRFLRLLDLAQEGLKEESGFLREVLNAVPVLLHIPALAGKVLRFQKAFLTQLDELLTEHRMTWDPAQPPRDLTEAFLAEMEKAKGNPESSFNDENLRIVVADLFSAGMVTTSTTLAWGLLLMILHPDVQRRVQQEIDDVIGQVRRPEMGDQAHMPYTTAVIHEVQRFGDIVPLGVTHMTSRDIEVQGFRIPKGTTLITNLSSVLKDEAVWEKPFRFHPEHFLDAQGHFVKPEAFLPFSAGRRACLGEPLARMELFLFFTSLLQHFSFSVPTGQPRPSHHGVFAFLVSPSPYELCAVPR
Procedure for CYP2C8: Test compound/controls working solution or DMSO were added in 238.5 µL of liver microsomes working solution, mixed well by pipetting several times and pre-incubated in a 37 °C shaking water bath for 5 min. Following the pre-incubation, 60 µL of NADPH working solution were added, mixed well by pipetting several times, and incubated in a 37 °C shaking water bath for 10 min. Following the incubation, 300 µL of quenching solution were immediately added and vortexed for ~20 s to mix. All samples were centrifuged at 4000 rpm for 15 min at 4 °C and then the supernatant was transferred for LC-MS/MS analysis. IC50 values were determined by the Hill slope equation using Graph Pad Prism.
For competitive and time-dependent CYP inhibition, the peak area ratios (PAR) of analyte/internal standard were used to semi-quantitatively determine the concentration of acetaminophen (CYP1A2 activity), 4’-hydroxydiclofenac (CYP2C9), 4’-hydroxymephenytoin (CYP2C19), dextrorphan (CYP2D6), 1’-hydroxymidazolam (CYP3A4), 6β-hydroxytestosterone (CYP3A4), hydroxybupropion (CYP2B6), and N-desethylamodiaquine (CYP2C8), with terfenadine as the internal standard by LC-MS/MS method. The HPLC-MS system utilized an Acquity UPLC system and Sciex API 4000 mass spectrometer in ESI positive mode, with quantitation employing MRM. Samples were injected onto an Atlantis T3 5 μM column (2.1 x 50 mm). […]
Procedure for CYP2D6: (§1) Incubation without 30 min pre-incubation, 178.5 µL of liver microsomes working was pre-incubated in a 37 °C water bath for 30 min. After the pre-incubation, 1.5 μL of test compound or control compound working solution, 60 μL of substrate working solution, and 60 μL of NADPH working solution were added; then, the reaction mixture was mixed by pipetting up and down and then incubated at 37 °C for 10 min. Incubation with 30 min pre-incubation. Next, 1.5 μL of test compound or control compound working solutions and 60 μL of NADPH working solution were added into 178.5 μL of liver microsome working solution, then the reaction mixture was mixed by pipetting up and down and then pre-incubated at 37 °C for 30 min. […]
(§2) For competitive and time-dependent CYP inhibition, the peak area ratios (PAR) of analyte/internal standard were used to semi-quantitatively determine the concentration of acetaminophen (CYP1A2 activity), 4’-hydroxydiclofenac (CYP2C9), 4’-hydroxymephenytoin (CYP2C19), dextrorphan (CYP2D6), 1’-hydroxymidazolam (CYP3A4), 6β-hydroxytestosterone (CYP3A4), hydroxybupropion (CYP2B6), and N-desethylamodiaquine (CYP2C8), with terfenadine as the internal standard by LC-MS/MS method. The HPLC-MS system utilized an Acquity UPLC system and Sciex API 4000 mass spectrometer in ESI positive mode, with quantitation employing MRM. […]
Procedure for CYP3A4/5: as §1, §2

`OC[C@H]1O[C@@H](OCCc2ccc(O)cc2)[C@H](O)[C@@H](O)[C@@H]1O` [Salidroside] registered a concentration for half-maximal inhibition (IC50) against CYP1A2 greater than 50 µM. In the series on CYP2B6 (1 µM), the “Mean Fold Induction” value was 0.6 fold. The “Mean Fold Induction” value in the series on CYP2B6 (10 µM) is 1.1 fold. Besides, in the series on CYP2B6 (Mean Fold Induction), the fold induction at 48 h, 1 µM was 0.9; the fold induction at 48 h, 3 µM amounted to 1.2; the fold induction at 48 h, 10 µM was 0.8. Further, on CYP2D6, the “IC50 Shift” value is “no shift”. The clearance in series [1] (12 mg/kg IV) is on record as 21 mL/min/kg. The “oral bioavailability (fb)” value in series [1] (12 mg/kg oral) is on record as 32.1%. Also, the observed Cmax in series [1] (oral 12 mg/kg) was 4300 ng/mL. Besides, the Cmax in series [1] (oral 12 mg/kg, read-out: observed Cmax) is 14.3 µM. For the same compound, the IC50 at 10 min with CYP3A4/5 is greater than 50 µM. Besides, the fraction unbound at 5 h, 5 µM in “in vitro” was determined as 0.856. At CYP2C8, the IC50 is greater than 50 µM.

What is called IC50 is the midpoint of a concentration-inhibition curve. A high value points to lower potency. Usually fold induction stands for the signal under treatment as a multiple of the control signal. Broadly, the clearance is a measure of how efficiently the substance is removed, as volume per time. In general, Cmax refers to the highest concentration seen after dosing. As usually defined, the fraction unbound is the share of the substance not bound to proteins or other matrix. Read a low fraction unbound as extensive binding.

(Values after article PMC10489644, “In Vitro Evaluation of the Potential for Drug Interactions by Salidroside” (Nutrients, 2023).)
